Patent US4117151A, “Therapeutic sulfonamides” (priority 1976, dated 1978)
“Also recorded” adds a separate entry of the source. Where a name gives a salt, the structure may show the parent alone.

Assays:
[1] = tested on: myocardium; details: background; cited from earlier work
[2] = acute toxicity in rats; assay type: in vivo; details: rat, in vivo, single administration, 12 days observation
Experimental: (§1) Finally, acute toxicity tests were carried out on rats and mice with Compound No. 7 and on rats with Compounds Nos. 13 and 14, the animals being kept under observation for 12 days following one single administration.

[3] = tested on: rats; assay: acute toxicity in rats; assay type: in vivo; details: single administration, 12 days observation
Experimental: as §1

[4] = tested on: oxygen consumption of the myocardium; assay: oxygen consumption of the myocardium (rate-pressure product); assay type: in vivo; details: anaesthetized dog, 10 mg/kg intravenous, 100 before administration
Experimental: This comparative trial aimed at determining the respective capabilities of the two substances to reduce the oxygen consumption of the myocardium. This property was measured by the indirect method known as the "rate-pressure product" which is a widely used and accurate haemodynamic index of myocardial oxygen consumption.
This method requires two cardiovascular parameters to be measured simultaneously, namely the mean aortic systolic blood-pressure and the heart-rate.
The "rate-pressure product" is obtained by multiplying the number of heart beats per minute by the mean aortic systolic blood-pressure. This provides an index of the total amount of oxygen used by the myocardium over a period of one minute. As it thus represents an accurate indication of the oxygen consumption of the myocardium, any lowering of the "rate-pressure product" indicates a corresponding drop in the oxygen consumption of the myocardium.
These tests were carried out on dogs which had been previously anaesthetized with sodium pentobarbital (30 mg/kg by intravenous route).
In both cases, the injection of 10 mg/kg took 2 minutes to administer.

[5] = tested on: patient; details: clinical use; background; cited from earlier work
[6] = tested on: blood-flow to the myocardium; assay: arterial coronary blood-flow (blood-flow to the myocardium); assay type: in vivo, dog; details: 10 mg/kg intravenous
Experimental: (1) The capability of Compound No. 7 of increasing the blood-flow to the myocardium and thus stepping up the supply of oxygen to this muscle was determined in accordance with the technique described by R. CHARLIER and J. BAUTHIER in Arzneimittel Forschung "Drug Research" 23, 1305-1311 (1973).
Seven experiments were carried out on seven dogs, using a intravenous injection of 10 mg/kg of Compound No. 7. […] The increase in blood-flow was regular and the return to the control values took place progressively within twenty minutes.

[7] = tested on: cardiac output; assay: cardiac output; assay type: in vivo; details: dog, 10 mg/kg intravenous
Experimental: (§2) The same experimental conditions as above were observed and the following parameters were measured: […]

[8] = tested on: cardiac frequency; assay: cardiac frequency, 60 minutes experiment; assay type: in vivo; details: dog, 10 mg/kg intravenous, during 60 minutes
Experimental: as §2

[9] = tested on: stroke volume; assay: stroke volume (cardiac output divided by heart-beats per minute); assay type: in vivo; details: dog, 10 mg/kg intravenous; for Stroke Volume: initial value 100%
Experimental: The same experimental conditions as above were observed and the following parameters were measured:
Thus, in order to determine the effect of any particular substance on stroke volume, it is sufficient to divide cardiac output by the number of heart-beats per minute.

[10] = acute toxicity in mice; assay type: in vivo; details: mouse, in vivo, single administration, 12 days observation
Experimental: as §1

[11] = tested on: mice; assay: acute toxicity in mice; assay type: in vivo; details: single administration, 12 days observation
Experimental: as §1

CC(C)NCC(O)COc1cccc2ccccc12 (racemic) [prapranolol]
anti-adrenergic effect [1]: exert an anti-adrenergic effect | cardiac frequency [1]: considerably reduce cardiac frequency | cardiac functioning [1]: depress cardiac functioning | oxygen requirements of the myocardium [1]: diminish the oxygen requirements of the myocardium | supply of oxygen to the myocardium [1]: lower the supply of oxygen to the myocardium

CCCCc1oc2ccccc2c1C(=O)c1ccc(N(CCCN(CCC)CCC)S(=O)(=O)c2ccc([N+](=O)[O-])cc2)cc1 [Compound 13, 2-n-butyl-3-[N-(3-di-n-propylaminopropyl)-N-(4-nitro-benzenesulfonyl)-4-amino-benzoyl]-benzofuran]
LD50 at 288 h ([2]; ip, intraperitoneal): 1000 mg/kg | LD0 ([3]; intraperitoneal): 180 mg/kg | LD95 ([3]; intraperitoneal): 3000 mg/kg

OCCN(CCO)c1nc(N2CCCCC2)c2nc(N(CCO)CCO)nc(N3CCCCC3)c2n1 [dipyridamole]
anti-adrenergic effect [1]: do not inhibit the cardio-vascular reactions to adrenergic stimulants | cardiac functioning [1]: do not depress the cardiac function | oxygen requirements of the myocardium [1]: do not reduce the oxygen requirements of the myocardium | supply of oxygen to the myocardium [1]: increase the supply of oxygen to the myocardium

CC(Cc1ccccc1)NCCC(c1ccccc1)c1ccccc1 (stereo not shown) [prenylamine]
anti-adrenergic effect [1]: do not inhibit the cardio-vascular reactions to adrenergic stimulants | cardiac functioning [1]: do not depress the cardiac function | oxygen requirements of the myocardium [1]: do not reduce the oxygen requirements of the myocardium | supply of oxygen to the myocardium [1]: increase the supply of oxygen to the myocardium

CCCCc1oc2ccccc2c1C(=O)c1cc(I)c(OCCN(CC)CC)c(I)c1 [Amiodarone, reference compound]
Oxygen Consumption (rate-pressure product) ([4]; 2.5 minutes after): 80.9 | Oxygen Consumption (rate-pressure product) ([4]; 5 minutes after): 79.1 | Oxygen Consumption (rate-pressure product) ([4]; 10 minutes after): 81.7 | Oxygen Consumption (rate-pressure product) ([4]; 15 minutes after): 79.7 | Oxygen Consumption (rate-pressure product) ([4]; 20 minutes after): 79.6 | Oxygen Consumption (rate-pressure product) ([4]; 25 minutes after): 80.4 | Oxygen Consumption (rate-pressure product) ([4]; 30 minutes after): 80.2 | Oxygen Consumption (rate-pressure product) ([4]; 35 minutes after): 79.6 | Oxygen Consumption (rate-pressure product) ([4]; 40 minutes after): 79.6 | Oxygen Consumption (rate-pressure product) ([4]; 45 minutes after): 79.6 | Oxygen Consumption (rate-pressure product) ([4]; 50 minutes after): 80.9 | Oxygen Consumption (rate-pressure product) ([4]; 55 minutes after): 80.0 | Oxygen Consumption (rate-pressure product) ([4]; 60 minutes after): 79.1 | four qualities of an ideal anti-anginal agent [1]: possesses the four qualities | side-effects [5]: microdeposit in the cornea; also recorded: in a few rare cases, the development of a cutaneous sensitivity to light which can lead to a slate-coloured pigmentation of the skin; also recorded: dysfunction of the thyroid gland

C1CCC(C(CC2CCCCN2)C2CCCCC2)CC1 (stereo not shown) [perhexiline maleate]
anti-adrenergic effect [1]: does not possess any anti-adrenergic properties | cardiac frequency [1]: diminishing cardiac frequency | cardiac functioning [1]: does not appear to exert a depressant effect upon cardiac functioning | oxygen requirements of the myocardium [1]: reducing the oxygen requirements of the myocardium | supply of oxygen to the myocardium [1]: increasing the supply of oxygen to the myocardium

CCCCc1oc2ccccc2c1C(=O)c1ccc(N(CCCN(CCCC)CCCC)S(=O)(=O)c2ccc(OC)cc2)cc1 [Compound 14, 2-n-butyl-3-[N-(3-di-n-butylaminopropyl)-N-(4-methoxy-benzenesulfonyl)-4-amino-benzoyl]-benzofuran]
LD50 at 288 h ([2]; ip, intraperitoneal): 1000 mg/kg | LD0 ([3]; intraperitoneal): 200 mg/kg | LD95 ([3]; intraperitoneal): 3000 mg/kg

CCCCc1oc2ccccc2c1C(=O)c1ccc(N(CCN(C)C)S(=O)(=O)c2ccc(C)cc2)cc1 [Compound 7, 2-n-butyl-3-[N-(2-dimethylaminoethyl)-N-(4-methyl-benzenesulfonyl)-4-amino-benzoyl]-benzofuran]
return of blood-flow to the control values ([6]; dog, hydrochloride): twenty | supply of oxygen to the myocardium ([6]; dog, conclusion in words): increases to a very marked degree the supply of oxygen to the myocardium | maximal increase in blood-flow to the myocardium ([6]; seven dogs, after 3 minutes, hydrochloride): about 94% | return of cardiac output to the control value [7]: ≤ 20 min | increase in cardiac output ([7]; after 2.5 minutes): 70% | increase in cardiac output ([7]; after 5 minutes): 50% | cardiac frequency [8]: dropped to a highly significant degree during 60 minutes | increase in stroke volume ([9]; during the first 5 minutes): above 100% | Stroke Volume ([9]; 2.5 min): 213% | Stroke Volume ([9]; 5 min): 200% | Stroke Volume ([9]; 10 min): 172% | Stroke Volume ([9]; 15 min): 152% | Stroke Volume ([9]; 20 min): 143% | Stroke Volume ([9]; 25 min): 136% | Stroke Volume ([9]; 30 min): 137% | Stroke Volume ([9]; 35 min): 138% | Stroke Volume ([9]; 40 min): 127% | Stroke Volume ([9]; 45 min): 127% | Stroke Volume ([9]; 50 min): 130% | Stroke Volume ([9]; 55 min): 120% | Stroke Volume ([9]; 60 min): 117% | performance of the cardiac muscle ([9]; conclusion in words): does not depress the performance of the cardiac muscle, and even stimulates this extremely important factor of cardiac functioning | Oxygen Consumption (rate-pressure product) ([4]; 2.5 minutes after): 54.4 | Oxygen Consumption (rate-pressure product) ([4]; 5 minutes after): 57.8 | Oxygen Consumption (rate-pressure product) ([4]; 10 minutes after): 63.5 | Oxygen Consumption (rate-pressure product) ([4]; 15 minutes after): 64.8 | Oxygen Consumption (rate-pressure product) ([4]; 20 minutes after): 64.8 | Oxygen Consumption (rate-pressure product) ([4]; 25 minutes after): 65.2 | Oxygen Consumption (rate-pressure product) ([4]; 30 minutes after): 65.6 | Oxygen Consumption (rate-pressure product) ([4]; 35 minutes after): 66.0 | Oxygen Consumption (rate-pressure product) ([4]; 40 minutes after): 66.8 | Oxygen Consumption (rate-pressure product) ([4]; 45 minutes after): 67.2 | Oxygen Consumption (rate-pressure product) ([4]; 50 minutes after): 67.6 | Oxygen Consumption (rate-pressure product) ([4]; 55 minutes after): 68.9 | Oxygen Consumption (rate-pressure product) ([4]; 60 minutes after): 68.9 | LD50 at 288 h ([2]; ip, intraperitoneal): 600 mg/kg | LD50 at 288 h ([2]; po, intragastric): 1600 mg/kg | LD0 ([3]; intragastric): 800 mg/kg | LD95 ([3]; intragastric): 2400 mg/kg | LD0 ([3]; intraperitoneal): 160 mg/kg | LD95 ([3]; intraperitoneal): 1400 mg/kg | LD50 at 288 h ([10]; ip, intraperitoneal): 275 mg/kg | LD50 at 288 h ([10]; po, intragastric): 2100 mg/kg | LD0 ([11]; intragastric): 550 mg/kg | LD95 ([11]; intragastric): 5000 mg/kg | LD0 ([11]; intraperitoneal): 50 mg/kg | LD95 ([11]; intraperitoneal): 900 mg/kg

CC(=O)Nc1ccc(OCC(O)CNC(C)C)cc1 (stereo not shown) [practolol]
anti-adrenergic effect [1]: exert an anti-adrenergic effect | cardiac frequency [1]: considerably reduce cardiac frequency | cardiac functioning [1]: depress cardiac functioning | oxygen requirements of the myocardium [1]: diminish the oxygen requirements of the myocardium | supply of oxygen to the myocardium [1]: lower the supply of oxygen to the myocardium
